Experimental data from patent US9493435B2, “IRE-1α inhibitors” (MannKing Corporation, priority 2009, dated 2016).

Assays:
[1] = target: human IRE-1α (GST-IRE-1α) (Homo sapiens (Human), UniProt O75460); assay: IRE-1α assay (cleavage of mini-XBP-1 mRNA stem-loop substrate); assay type: biochemical; settings: average IC50 for inhibition of IRE-1α in vitro
Protocol: A fusion protein comprising glutathione S transferase (GST) and human IRE-1α (GST-IRE-1α) obtained from a 500 ml baculovirus-infected insect cell culture can be used to measure IRE-1α activity in vitro. Five μl of a reaction mixture comprising 1× reaction buffer (5× reaction buffer is 100 mM Hepes pH 7.5, 250 mM KOAc, 2.5 mM MgCl2), 3 mM DTT, and 0.4% polyethylene glycol water is added to each well of 384 well plates. Twenty-five nanoliters of a 1 mM test compound solution are added to test wells. […] Negative control wells contain only reaction mixture and test compound. After spinning the plates at 1200 rpm for 30 seconds, 3 μl of an IRE-1α human mini-XBP-1 mRNA stem-loop substrate [NT] ID NO:1), labeled with the fluorescent dye Cy5 at the [NT] end, are added to each well of a control plate. The plates are again spun at 1200 rpm for 30 seconds. […] The plates are covered with lids and incubated for one hour at 30° C. The plates are then transferred to an […] microplate reader. Data is analyzed using data analysis software, and the percent activity of IRE-1α is calculated.

[2] = test system: IRE-1α-mediated XBP-1 splicing in human myeloma MM.1s cells; assay: Cellular XBP-1 splicing assay in myeloma cells (RT-PCR); assay type: cell-based; settings: average EC50, endogenous XBP-1 splicing in myeloma cells, DTT stress
Protocol: After an additional 45 minutes (2 hours total) with compound and DTT, the cells are harvested with TRIZOL® (a mono-phasic solution of phenol and guanidine isothiocyanate), and total RNA is prepared as directed by the manufacturer (Invitrogen). Human XBP-1 is amplified by RT-PCR with the following primers, which flank the 26 base unconventional intron excised by IRE-1α:
RT-PCR of unstressed (U) cells then generates the upper band. When cells are stressed (S) with the endoplasmic reticulum (ER) stressing agent DTT, IRE-1α is activated due to accumulating unfolded protein and the resulting RT-PCR product is 26 base pairs shorter.
Compounds which pass specificity assays are assayed for cellular EC50 using endogenous XBP-1 splicing in myeloma cells. XBP-1 is regulated through the excision of a 26 nucleotide intron from the XBP-1 mRNA by the highly specific endoribonuclease activity of IRE-1α. […] This splicing event is used to measure IRE-1α activity on XBP-1 mRNA in cells and tissues.
Briefly, compounds are incubated in the presence or absence of an ER stress agent (e.g., DTT), and the ratio of XBP-1u (unspliced) to XBP-1s (spliced) is quantified by RT-PCR.

human IRE-1α (GST-IRE-1α), sequence (O75460 19-977): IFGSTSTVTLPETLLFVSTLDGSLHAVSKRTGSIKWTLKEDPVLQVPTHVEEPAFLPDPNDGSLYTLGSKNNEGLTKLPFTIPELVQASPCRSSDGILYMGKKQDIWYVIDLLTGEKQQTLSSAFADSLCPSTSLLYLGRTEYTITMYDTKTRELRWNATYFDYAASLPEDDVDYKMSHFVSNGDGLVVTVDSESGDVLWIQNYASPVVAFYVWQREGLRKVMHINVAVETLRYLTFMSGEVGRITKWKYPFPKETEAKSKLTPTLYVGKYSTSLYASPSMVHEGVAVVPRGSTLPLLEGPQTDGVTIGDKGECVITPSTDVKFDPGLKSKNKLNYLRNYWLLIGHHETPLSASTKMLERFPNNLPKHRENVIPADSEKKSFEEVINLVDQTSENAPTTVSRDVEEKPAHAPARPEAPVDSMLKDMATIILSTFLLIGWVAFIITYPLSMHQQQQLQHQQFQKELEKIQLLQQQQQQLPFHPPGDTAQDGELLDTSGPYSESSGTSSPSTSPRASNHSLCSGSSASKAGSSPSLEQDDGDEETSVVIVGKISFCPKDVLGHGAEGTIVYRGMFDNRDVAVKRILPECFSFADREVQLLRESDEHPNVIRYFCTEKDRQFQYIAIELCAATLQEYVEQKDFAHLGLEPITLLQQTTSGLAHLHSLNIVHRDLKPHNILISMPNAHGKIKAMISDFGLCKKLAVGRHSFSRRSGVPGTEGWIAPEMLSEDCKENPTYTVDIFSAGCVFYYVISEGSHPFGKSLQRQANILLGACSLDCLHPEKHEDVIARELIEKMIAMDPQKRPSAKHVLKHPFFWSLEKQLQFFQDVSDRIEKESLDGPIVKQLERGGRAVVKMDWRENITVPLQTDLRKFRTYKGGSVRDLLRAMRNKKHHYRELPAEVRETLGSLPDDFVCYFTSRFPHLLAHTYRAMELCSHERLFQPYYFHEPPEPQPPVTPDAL

IC50 [1] | EC50 ([2]; Homo sapiens, MM1.S) | Structure (SMILES) | EC50 [2]
< 1000 nM | > 10 µM | O=Cc1c(O)ccc2cc(N3CCC(NCc4ccccc4)CC3)ccc12 [Compound 97] | 
1000 nM | < 10 µM | O=Cc1c(O)ccc2cc(N3CCCC(NCc4ccccc4)C3)ccc12 (centres unmarked) [Compound 98] | 
> 1000 nM | < 10 µM | CC(C)N1CCN(c2ccc3c(C=O)c(O)ccc3c2)CC1 [Compound 99] | 
< 1000 nM | > 10 µM | O=Cc1c(O)ccc2cc(N3CCN(Cc4cccnc4)CC3)ccc12 [Compound 100] | 
< 1000 nM | > 10 µM | O=Cc1c(O)ccc2cc(-c3ccc(C(=O)N4CCOCC4)cn3)ccc12 [Compound 101] | 
> 1000 nM | > 10 µM | O=Cc1c(O)ccc2cc(N3CCN(c4cccnc4)CC3)ccc12 [Compound 103] | 
> 1000 nM | > 10 µM | O=Cc1c(O)ccc2ccc(N3CCCC3)cc12 [Compound 104] | 
< 1000 nM | < 10 µM | COCc1cn(-c2ccc3c(C=O)c(O)ccc3c2)nn1 [Compound 105] | 
> 1000 nM | > 10 µM | CN(C)C1CCN(c2ccc3c(C=O)c(O)ccc3c2)C1 (centres unmarked) [Compound 106] | 
> 1000 nM | > 10 µM | O=Cc1c(O)ccc2cc(N3CCC(N4CCOCC4)C3)ccc12 (centres unmarked) [Compound 107] | 
> 1000 nM | > 10 µM | O=Cc1c(O)ccc2cc(N3CCCC(NCc4ccccn4)C3)ccc12 (centres unmarked) [Compound 108] | 
< 100 nM | < 10 µM | Cc1nc(-c2ccc3c(C=O)c(O)ccc3c2)sc1C(=O)N1CCOCC1 [Compound 109] | 
< 1000 nM | > 10 µM | O=Cc1c(O)ccc2cc(N3CCC(C(=O)N4CCOCC4)CC3)ccc12 [Compound 110] | 
< 1000 nM | > 10 µM | O=Cc1c(O)ccc2cc(N3CCC(C(=O)N4CCOCC4)C3)ccc12 (centres unmarked) [Compound 111, 2-Hydroxy-6-[3-(morpholine-4-carbonyl)-pyrrolidin-1-yl]-naphthalene-1-carbaldehyde] | 
< 1000 nM | < 10 µM | CN1CCN(C(=O)C2CCN(c3ccc4c(C=O)c(O)ccc4c3)C2)CC1 (centres unmarked) [Compound 112] | 
> 1000 nM | > 10 µM | O=Cc1c(O)ccc2cc(N3CCN(C4CCNCC4)CC3)ccc12 [Compound 113] | 
< 1000 nM | > 10 µM | O=Cc1c(O)ccc2cc(N3CCC(NCc4ccccn4)CC3)ccc12 [Compound 114] | 
> 1000 nM | < 10 µM | O=Cc1c(O)ccc2cc(N3CCC(NCc4cccnc4)CC3)ccc12 [Compound 116] | 
< 1000 nM | < 10 µM | O=Cc1c(O)ccc2cc(N3CCC(N4CCCCC4)C3)ccc12 (centres unmarked) [Compound 117] | 
> 1000 nM | < 10 µM | CN1CCN(C2CCN(c3ccc4c(C=O)c(O)ccc4c3)C2)CC1 (centres unmarked) [Compound 118] | 

IC50 [1] | EC50 ([2]; Homo sapiens, MM1.S) | Structure (SMILES) | EC50 [2]
< 1000 nM | 10 µM | CN1CCN(c2nc(-c3ccc4c(C=O)c(O)ccc4c3)cs2)CC1 [Compound 120] | 
< 100 nM | < 10 µM | CN1CCN(c2ncc(-c3ccc4c(C=O)c(O)ccc4c3)s2)CC1 [Compound 121] | 
> 1000 nM | < 10 µM | CNC1CCN(c2ccc3c(C=O)c(O)ccc3c2)C1 (centres unmarked) [Compound 122] | 
< 1000 nM | < 10 µM | O=Cc1c(O)ccc2cc(-c3ccc(C(=O)N4CCCC4)nc3)ccc12 [Compound 124] | 
< 100 nM | < 10 µM | COCCNCCNC(=O)c1ccc(-c2ccc3c(C=O)c(O)ccc3c2)cn1 [Compound 125] | 
< 100 nM | < 10 µM | O=Cc1c(O)ccc2cc(-c3ccc(C(=O)NCCN4CCOCC4)nc3)ccc12 [Compound 126] | 
< 1000 nM | > 10 µM | CNC(=O)C1CCN(c2ccc3c(C=O)c(O)ccc3c2)C1 (centres unmarked) [Compound 127] | 
> 1000 nM | > 10 µM | CN(C)C(=O)C1CCN(c2ccc3c(C=O)c(O)ccc3c2)C1 (centres unmarked) [Compound 128] | 
> 1000 nM | > 10 µM | O=Cc1c(O)ccc2cc(N3CCC(C(=O)N4CCCCC4)C3)ccc12 (centres unmarked) [Compound 129] | 
> 1000 nM | > 10 µM | CNC(=O)C1CCN(c2ccc3ccc(O)c(C=O)c3c2)C1 (centres unmarked) [Compound 131] | 
> 1000 nM | > 10 µM | CN(C)C(=O)C1CCN(c2ccc3ccc(O)c(C=O)c3c2)C1 (centres unmarked) [Compound 132] | 
> 1000 nM | > 10 µM | O=Cc1c(O)ccc2ccc(N3CCC(C(=O)N4CCCCC4)C3)cc12 (centres unmarked) [Compound 133] | 
> 1000 nM | > 10 µM | CN(Cc1ccccc1)C(=O)C1CCN(c2ccc3ccc(O)c(C=O)c3c2)C1 (centres unmarked) [Compound 134] | 
> 1000 nM | > 10 µM | CN(C)C1CCN(c2ccc3ccc(O)c(C=O)c3c2)C1 (centres unmarked) [Compound 135] | 
> 1000 nM | > 10 µM | O=Cc1c(O)ccc2ccc(N3CCC(N4CCCCC4)C3)cc12 (centres unmarked) [Compound 137] | 
> 1000 nM | > 10 µM | CN1CCN(C2CCN(c3ccc4ccc(O)c(C=O)c4c3)C2)CC1 (centres unmarked) [Compound 138] | 
< 100 nM | < 10 µM | O=Cc1c(O)ccc2cc(-c3ccc(C(=O)NCCN4CCOCC4)cc3)ccc12 [Compound 139] | 
< 100 nM | < 10 µM | Cc1nc(-c2ccc3c(C=O)c(O)ccc3c2)sc1C(=O)N1CCCC1 [Compound 140] | 
< 100 nM | < 10 µM | COCCNC(=O)c1sc(-c2ccc3c(C=O)c(O)ccc3c2)nc1C [Compound 141] | 
< 100 nM | < 10 µM | Cc1nc(-c2ccc3c(C=O)c(O)ccc3c2)sc1C(=O)NCCN1CCOCC1 [Compound 142] | 

IC50 [1] | EC50 ([2]; Homo sapiens, MM1.S) | Structure (SMILES) | EC50 [2]
> 1000 nM | < 10 µM | CN1CCC(NC(=O)c2ccc(-c3ccc4c(C=O)c(O)ccc4c3)cc2)CC1 [Compound 143] | 
< 100 nM | < 10 µM | Cc1nc(-c2ccc3c(C=O)c(O)ccc3c2)sc1C(=O)NC1CCNCC1 [Compound 144] | 
< 1000 nM | < 10 µM | Cc1nc(-c2ccc3c(C=O)c(O)ccc3c2)sc1C(=O)NC1CCN(C)CC1 [Compound 145] | 
> 1000 nM | > 10 µM | CN(Cc1ccccc1)C1CCN(c2ccc3c(C=O)c(O)ccc3c2)C1 (centres unmarked) [Compound 146] | 
> 1000 nM | > 10 µM | CN(Cc1ccncc1)C1CCN(c2ccc3c(C=O)c(O)ccc3c2)C1 (centres unmarked) [Compound 147] | 
> 1000 nM | > 10 µM | CN(Cc1ccncc1)C(=O)C1CCN(c2ccc3ccc(O)c(C=O)c3c2)C1 (centres unmarked) [Compound 148] | 
> 1000 nM | > 10 µM | O=Cc1c(O)ccc2ccc(N3CCC(C(=O)N4CCOCC4)C3)cc12 (centres unmarked) [Compound 149] | 
> 1000 nM | > 10 µM | CN1CCN(C(=O)C2CCN(c3ccc4ccc(O)c(C=O)c4c3)C2)CC1 (centres unmarked) [Compound 150] | 
< 1000 nM | < 10 µM | O=Cc1c(O)ccc2cc(-c3ccc(C(=O)NC4CCNCC4)nc3)ccc12 [Compound 151] | 
> 1000 nM | > 10 µM | CN(Cc1ccccc1)C1CCN(c2ccc3ccc(O)c(C=O)c3c2)C1 (centres unmarked) [Compound 152] | 
> 1000 nM | > 10 µM | O=Cc1c(O)ccc2cc(N3CCC(NCc4ccccc4)C3)ccc12 (centres unmarked) [Compound 153] | 
< 1000 nM | < 10 µM | CC(=O)NC1CCN(c2ccc3c(C=O)c(O)ccc3c2)C1 (centres unmarked) [Compound 154] | 
> 1000 nM | > 10 µM | CN(Cc1ccncc1)C1CCN(c2ccc3ccc(O)c(C=O)c3c2)C1 (centres unmarked) [Compound 155] | 
> 1000 nM | > 10 µM | CC(=O)NC1CCN(c2ccc3ccc(O)c(C=O)c3c2)C1 (centres unmarked) [Compound 156] | 
> 1000 nM | > 10 µM | CC(=O)N(C)C1CCN(c2ccc3ccc(O)c(C=O)c3c2)C1 (centres unmarked) [Compound 157] | 
< 1000 nM | > 10 µM | CN(Cc1ccncc1)C(=O)C1CCN(c2ccc3c(C=O)c(O)ccc3c2)C1 (centres unmarked) [Compound 158] | 
> 1000 nM | > 10 µM | CC(C)N1CCN(c2ccc3ccc(O)c(C=O)c3c2)CC1 [Compound 159] | 
> 1000 nM |  | COCCNC(=O)c1ccc(-c2ccc3c(C=O)c(O)ccc3c2)cc1 [Compound 170] | < 10 µM
< 100 nM | < 10 µM | O=Cc1c(O)ccc2cc(-c3ccc(C(=O)NC4CCCNC4)o3)ccc12 (centres unmarked) [Compound 171] | 
< 1000 nM | > 10 µM | O=Cc1c(O)ccc2ccc(OS(=O)(=O)C(F)(F)F)cc12 [Compound 177] | 

Structure (SMILES) | IC50 [1] | EC50 ([2]; Homo sapiens, MM1.S) | EC50 [2]
CN1CCN(C(=O)COc2ccc3c(C=O)c(O)ccc3c2)CC1 [Compound 165] | > 1000 nM |  | > 10 µM
